Experimental data reported in patent publication US20240092779A1, “USP1 INHIBITORS AND USES THEREOF” (Zentaur Therapeutics USA Inc., priority 2022, published 2024).

How the values were obtained:
MDA-MB-436 cells = test: CTG Protocol (MDA-MB-436 GI50), antiproliferative activity; assay type: cell-based, human; conditions: MDA-MB-436 cells (BRCA1 mutation), 7-day incubation, CellTiter-Glo
Summary of the method: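 BRCA1-mutant MDA-MB-436 cells were seeded at 1000 cells/well in DMEM, left overnight, then exposed to a 9-point, 3-fold compound series for 7 days at 37 °C, 5% CO2. Viability was read by CellTiter-Glo luminescence. % inhibition was plotted against concentration to derive GI50.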

[1] = Liver microsomal stability (HLM); assay type: in vitro ADME; conditions: human, liver microsomes, human liver microsomes 0.5 mg/mL, 1 μM compound, NADPH
[2] = target: T1, recombinant USP1/UAF1 enzyme complex (Homo sapiens, UniProt O94782); test: Enzyme assay: deubiquitinase fluorometric assay with ubiquitin-Rhodamine substrate; assay type: biochemical; conditions: USP1/UAF1, Ub-Rho110 substrate, 2 hours preincubation, 1 hour reaction
T1 construct: purchased Biortus
T1 sequence (O94782 whole entry): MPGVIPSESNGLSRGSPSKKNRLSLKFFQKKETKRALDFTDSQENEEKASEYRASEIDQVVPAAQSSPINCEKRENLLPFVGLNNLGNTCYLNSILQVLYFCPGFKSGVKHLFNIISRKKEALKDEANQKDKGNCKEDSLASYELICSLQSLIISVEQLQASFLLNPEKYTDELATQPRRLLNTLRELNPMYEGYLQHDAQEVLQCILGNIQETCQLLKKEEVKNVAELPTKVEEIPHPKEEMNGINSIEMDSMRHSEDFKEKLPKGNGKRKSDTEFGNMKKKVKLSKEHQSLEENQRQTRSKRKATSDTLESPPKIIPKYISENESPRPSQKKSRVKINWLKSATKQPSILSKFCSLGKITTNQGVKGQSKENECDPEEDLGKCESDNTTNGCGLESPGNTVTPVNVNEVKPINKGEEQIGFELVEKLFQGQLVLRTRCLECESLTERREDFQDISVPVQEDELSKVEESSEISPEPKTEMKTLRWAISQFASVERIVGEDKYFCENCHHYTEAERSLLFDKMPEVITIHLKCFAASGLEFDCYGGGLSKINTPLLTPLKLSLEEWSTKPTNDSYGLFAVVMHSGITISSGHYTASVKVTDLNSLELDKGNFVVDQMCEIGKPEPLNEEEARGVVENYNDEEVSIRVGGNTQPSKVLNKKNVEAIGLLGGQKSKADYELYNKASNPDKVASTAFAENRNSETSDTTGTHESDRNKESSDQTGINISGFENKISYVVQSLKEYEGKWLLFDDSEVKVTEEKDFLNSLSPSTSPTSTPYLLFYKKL
T1 sequence (Q8TAF3 whole entry partner): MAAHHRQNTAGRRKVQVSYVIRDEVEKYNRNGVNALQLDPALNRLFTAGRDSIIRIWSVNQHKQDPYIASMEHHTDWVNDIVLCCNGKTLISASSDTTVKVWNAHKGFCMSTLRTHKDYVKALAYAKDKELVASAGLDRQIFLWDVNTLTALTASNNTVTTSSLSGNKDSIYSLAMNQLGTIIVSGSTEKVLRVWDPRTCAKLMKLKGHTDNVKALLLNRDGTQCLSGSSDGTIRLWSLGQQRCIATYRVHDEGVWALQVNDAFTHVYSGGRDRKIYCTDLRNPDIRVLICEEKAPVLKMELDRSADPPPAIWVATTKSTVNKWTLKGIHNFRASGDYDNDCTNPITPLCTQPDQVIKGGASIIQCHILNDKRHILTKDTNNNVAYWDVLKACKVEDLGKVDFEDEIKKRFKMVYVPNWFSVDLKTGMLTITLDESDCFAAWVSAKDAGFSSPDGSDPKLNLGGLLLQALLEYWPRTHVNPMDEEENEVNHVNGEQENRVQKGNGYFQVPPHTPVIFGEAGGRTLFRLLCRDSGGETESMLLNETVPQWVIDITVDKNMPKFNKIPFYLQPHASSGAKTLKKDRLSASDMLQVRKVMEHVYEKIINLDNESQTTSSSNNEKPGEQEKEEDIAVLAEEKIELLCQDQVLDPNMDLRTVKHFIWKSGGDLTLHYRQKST
Method: Enzymatic inhibitory potency of the compounds was assessed in a deubiquitinase fluorometric assay using ubiquitin-Rhodamine (Ub-Rho110, R&D Systems) as substrate and the recombinant USP1/UAF1 enzyme complex (Biortus). Assays were performed in a final volume of 12 μL using black 384-well plates (Corning #4514) containing 50 mM HEPES (pH 7.5, BioRoYee), 0.5 mM EDTA, 1 mM dithiothreitol, 0.1 mg/mL bovine serum albumin, 50 nM Ub-Rhol10, 0.004 nM USP1/UAF1, and series diluted compounds from 10 μM to 0.5 nM (10 dilution steps). Assay-ready plates containing 40 nL of Echo-dispensed compound in DMSO were reconstituted with 2 μL of ddH2O, then 5 μL of USP1/UAF1 enzyme mixture was added and preincubated at room temperature for 2 hours. Enzymatic reaction was initiated by the addition of […] substrate mixture and assay allowed to proceed for 1 hour at room temperature before quenching with 3 μL of 150 mM citric acid. Fluorescence signal was detected via TECAN SPARK with excitation at 485 nm and emission at 535 nm. Data analysis was done using GraphPad Prism8 and IC50 values were obtained by 4-parameter logistic curve fitting.
Certain compounds were tested in the assays.

HCC1806 Ub-PCNA (USP1) = test: USP1 Western Blot Protocol (HCC1806 Ub-PCNA); assay type: cell-based; conditions: HCC1806 cells, 4 hours
Summary of the method: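 HCC1806 cells seeded overnight, then treated 4 h at 37 °C with a 5-point, 4-fold dilution series (0.1% DMSO). Lysates immunoblotted for Ub-PCNA with fluorescent detection; inhibition expressed as % vehicle from Ub-PCNA upregulation, IC50 by four-parameter logistic fit.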

Compound	GI50 (MDA-MB-436 cells; Homo sapiens, 168 h)	microsomal CLint at 1 μM [1]	IC50 [2]	IC50 (HCC1806 Ub-PCNA (USP1); Homo sapiens)	GI50 (MDA-MB-436 cells)	IC50 (HCC1806 Ub-PCNA (USP1))
COc1ncnc(C2CC2)c1-c1ncc2c(n1)N(Cc1ccc(-c3nc(C(F)(F)F)cn3C(C)C)cc1)C(=O)N(C)C2 [Compound I-25]	10 to 100 nM	≥ 50 µL/min/mg	10 to 100 nM	10 to 100 nM	–	–
COc1ncnc(C2CC2)c1-c1ncc2ccc(=O)n(Cc3ccc(-c4nc(C(F)(F)F)cn4C4CC4)cc3)c2c1F [Compound 82]	10 to 100 nM	–	10 to 100 nM	10 to 100 nM	–	–
COc1ncnc(C2CC2)c1-c1ncc2ccc(=O)n(Cc3ccc(-c4ncccc4OC(C)C)cc3)c2n1 [Compound I-33]	10 to 100 nM	≥ 50 µL/min/mg	10 to 100 nM	10 to 100 nM	–	–
COc1cc(Cn2c(=O)ccc3cnc(-c4c(OC)ncnc4C4CC4)nc32)cc(F)c1-c1nc(C(F)(F)F)cn1C [Compound 73, 2-(4-Cyclopropyl-6-Methoxypyrimidin-5-Yl)-8-({3-Fluoro-5-Methoxy-4-[1-Methyl-4-(Trifluoromethyl)Imidazol-2-Yl]Phenyl}Methyl)Pyrido[2,3-d]Pyrimidin-7-One]	10 to 100 nM	–	10 to 100 nM	10 to 100 nM	–	–
COc1ncnc(C2CC2)c1-c1ncc2ccc(=O)n(Cc3ccc(-c4ncccc4F)cc3)c2n1 [Compound 65, 2-(4-cyclopropyl-6-methoxypyrimidin-5-yl)-8-{[4-(3-fluoropyridin-2-yl)phenyl]methyl}pyrido[2,3-d]pyrimidin-7-one]	100 to 1000 nM	–	10 to 100 nM	> 1000 nM	–	–
CCc1ncnc(OC)c1-c1ncc2ccc(=O)n(Cc3ccc(-c4nc(C(F)(F)F)cn4C)cc3)c2n1 [Compound I-48, 2-(4-Ethyl-6-Methoxypyrimidin-5-Yl)-8-({4-[1-Methyl-4-(Trifluoromethyl)Imidazol-2-Yl]Phenyl}Methyl)Pyrido[2,3-d]Pyrimidin-7-One]	10 to 100 nM	–	10 to 100 nM	10 to 100 nM	–	–
Cc1ncnc(C2CC2)c1-c1ncc2ccc(=O)n(Cc3ccc(-c4nc(C(F)(F)F)cn4C)cc3)c2n1 [Compound I-49, 2-(4-Cyclopropyl-6-Methylpyrimidin-5-Yl)-8-({4-[1-Methyl-4-(Trifluoromethyl)Imidazol-2-Yl]Phenyl}Methyl)Pyrido[2,3-d]Pyrimidin-7-One]	100 to 1000 nM	–	10 to 100 nM	100 to 1000 nM	–	–
COc1ncnc(C2CC2)c1-c1ncc2ccc(=O)n(Cc3ccc(-c4ncccc4C)cc3)c2n1 [Compound 74, 2-(4-cyclopropyl-6-methoxypyrimidin-5-yl)-8-{[4-(3-methylpyridin-2-yl)phenyl]methyl}pyrido[2,3-d]pyrimidin-7-one]	10 to 100 nM	–	10 to 100 nM	10 to 100 nM	–	–
COc1cccnc1-c1ccc(Cn2c(=O)ccc3cnc(-c4c(OC)ncnc4C4CC4)nc32)cc1 [Compound 66, 2-(4-cyclopropyl-6-methoxypyrimidin-5-yl)-8-{[4-(3-methoxypyridin-2-yl)phenyl]methyl}pyrido[2,3-d]pyrimidin-7-one]	10 to 100 nM	–	10 to 100 nM	10 to 100 nM	–	–
COc1ncnc(C2CC2)c1-c1ncc2c(n1)N(Cc1ccc(-c3nc(C(F)(F)F)cn3C(C)C)cc1)C(=O)NC2 [Compound I-24]	10 to 100 nM	≥ 50 µL/min/mg	10 to 100 nM	10 to 100 nM	–	–
COc1ncnc(C2CC2)c1-c1ncc2ccc(=O)n(Cc3ccc(-c4nccc(C(F)(F)F)n4)cc3)c2n1 [Compound I-34]	> 1000 nM	–	100 to 1000 nM	> 1000 nM	–	–
COc1ncnc(C2CC2)c1-c1ncc2ccc(=O)n(Cc3ccc(-c4nc(C(F)(F)F)cn4CC(F)F)cc3)c2n1 [Compound 61, 2-(4-cyclopropyl-6-methoxypyrimidin-5-yl)-8-({4-[1-(2,2-difluoroethyl)-4-(trifluoromethyl)imidazol-2-yl]phenyl}methyl)pyrido[2,3-d]pyrimidin-7-one]	10 to 100 nM	–	10 to 100 nM	10 to 100 nM	–	–
COc1ncnc(C2CC2)c1-c1ncc2cc(CN3CCNCC3)c(=O)n(Cc3ccc(-c4nc(C(F)(F)F)cn4C)cc3)c2n1 [Compound 54, 2-(4-cyclopropyl-6-methoxypyrimidin-5-yl)-8-({4-[1-methyl-4-(trifluoromethyl)imidazol-2-yl]phenyl}methyl)-6-(piperazin-1-ylmethyl)pyrido[2,3-d]pyrimidin-7-one]	10 to 100 nM	–	10 to 100 nM	100 to 1000 nM	–	–
COc1ncnc(C2CC2)c1-c1ncc2ccc(=O)n(Cc3ccc(-c4cccc(C(F)(F)F)c4)cc3)c2n1 [Compound I-42]	100 to 1000 nM	–	100 to 1000 nM	100 to 1000 nM	–	–
COc1ncnc(C2CC2)c1-c1ncc2ccc(=O)n(Cc3ccc(-c4nc(C(F)(F)F)cn4C)cc3)c2c1F [Compound I-50, 7-(4-cyclopropyl-6-methoxypyrimidin-5-yl)-8-fluoro-1-({4-[1-methyl-4-(trifluoromethyl)imidazol-2-yl]phenyl}methyl)-1,6-naphthyridin-2-one]	10 to 100 nM	–	10 to 100 nM	10 to 100 nM	–	–
COc1ncnc(C2CC2)c1-c1ncc2ccc(=O)n(Cc3ccc(-c4nc(C(F)(F)F)cn4C4COC4)cc3)c2n1 [Compound 59, 2-(4-cyclopropyl-6-methoxypyrimidin-5-yl)-8-({4-[1-(oxetan-3-yl)-4-(trifluoromethyl)imidazol-2-yl]phenyl}methyl)pyrido[2,3-d]pyrimidin-7-one]	10 to 100 nM	–	10 to 100 nM	10 to 100 nM	–	–
COc1ncnc(C2CC2)c1-c1ncc2cc(CN3CCN(C)CC3)c(=O)n(Cc3ccc(-c4nc(C(F)(F)F)cn4C)cc3)c2n1 [Compound 55, 2-(4-cyclopropyl-6-methoxypyrimidin-5-yl)-8-({4-[1-methyl-4-(trifluoromethyl)imidazo]-2-yl]phenylmethyl)-6-[(4-methylpiperazin-1-yl)methyl]pyrido[2,3-d]pyrimidin-7-one]	–	–	10 to 100 nM	–	10 to 100 nM	10 to 100 nM
